Entries after “also recorded” stand apart in the source; their conditions may differ.
Legend:
α-toxin [1] = biological target: T1, α-toxin (Staphylococcus aureus, UniProt P09616); details: cited from earlier work
α-toxin [2] = biological target: T1, α-toxin; type: cell-based
S. aureus strain 8325-4 = test: Experimental keratitis in rabbits, S. aureus strain 8325-4, topical treatment; type: in vivo, Staphylococcus aureus; details: rabbit eyes
Method: FIG. 4 is a set of graphs that show the effect of CD-cholesterol treatment of eyes infected with strain 8325-4. Rabbit corneas were injected with 10^2 CFU of S. aureus 8325-4. Eyes were randomized and treated with 1% CD-cholesterol, 1% CD, or PBS from 7 to 13 hours PI. At 7 hours PI, eyes were treated with a single topical drop every 15 minutes from 7 to 8 hours PI. At 8.5 hours PI, eyes were treated with a single topical drop every 30 minutes until 13 hours PI (a total of 15 drops). At 13 hours PI, the eyes were evaluated by SLE (A) and erosion diameters were measured using fluorescein strips (B) The pathologic changes were observed then averaged and statistical comparisons were performed using one-way ANOVA. The erosions were averaged and statistical comparisons using analysis of variance and Student's t-test were performed. Error bars are the standard error of the mean (SEM). P≦0.05, for either test, was considered significant. […] The eyes treated with 1% CD or with PBS had statistically similar SLE scores (P=0.4002). […] The eyes treated with 1% CD-cholesterol or 1% CD had erosion diameters similar to one another (P=0.4002).
(§1) Rabbits (n≧4 eyes per group) were infected as previously described, injecting approximately 100 colony forming units (CFU) of strain 8325-4 or strain 60171, a clinical isolate, in 10 μL of TSB into the stroma of the cornea. Accuracy of the inoculum size was verified by plating aliquots (100 μL) of serial dilutions in triplicate on TSA.
At 7 hours postinfection (PI), treatment began and consisted of a single topical drop of PBS, 1% CD, or 1% CD-cholesterol every 15 minutes from 7 to 8 hours PI. Then, beginning at 8.5 hours PI, a single drop was administered every 30 minutes until 13 hours PI; a total of 15 drops per eye. At 13 hours PI, corneal erosions were measured and all eyes underwent slit lamp examination (SLE) to quantify pathologic changes. […]
Corneas of rabbits infected with either S. aureus 8325-4 or 60171 were harvested at 14 hours PI and bacteria were quantified as described previously. […]

S. aureus strain 60171 = test: Experimental keratitis in rabbits, S. aureus clinical isolate 60171, topical treatment; type: in vivo, Staphylococcus aureus; details: rabbit eyes
Method: FIG. 5 is a set of graphs that show the effect of CD-cholesterol treatment of eyes infected with strain 60171. Eyes were treated and evaluated as described for FIG. 3. Error bars are the SEM. […] In contrast, the CD-treated eyes had similar SLE scores compared to the PBS-treated eyes (P=0.7403). […] There was no statistical difference between the eyes treated with 1% CD and the eyes treated with PBS (P=0.2131).
as §1
At 7 hours postinfection (PI), treatment began and consisted of a single topical drop of PBS, 1% CD, or 1% CD-cholesterol every 15 minutes from 7 to 8 hours PI. Then, beginning at 8.5 hours PI, a single drop was administered every 30 minutes until 13 hours PI; a total of 15 drops per eye. At 13 hours PI, corneal erosions were measured and all eyes underwent slit lamp examination (SLE) to quantify pathologic changes.
SLE of pathologic changes of rabbit eyes was performed by two masked observers as described previously.
Corneas of rabbits infected with either S. aureus 8325-4 or 60171 were harvested at 14 hours PI and bacteria were quantified as described previously.
These finding raised the possibility that CD-cholesterol could treat corneas infected with S. aureus. Rabbit corneas were injected with either S. aureus strain 8325-4 or S. aureus clinical isolate 60171. Rabbit eyes were treated from 7 to 13 hours PI with PBS, 1% CD, or 1% CD-cholesterol. […]
Strain 60171, an ocular clinical isolate, was injected into the corneas of rabbits to determine the effectiveness of treatments with CD-cholesterol, CD, or PBS. As described above, the pathologic changes and erosion development were observed via SLE at 13 hours PI (FIG. 2B) whereas the number of surviving bacteria was determined at 14 hours PI.

α-toxin heptamer = α-toxin heptamer (Staphylococcus aureus, UniProt P09616); details: literature; cited from earlier work
Sequence of α-toxin heptamer (P09616 27-319 limits assumed): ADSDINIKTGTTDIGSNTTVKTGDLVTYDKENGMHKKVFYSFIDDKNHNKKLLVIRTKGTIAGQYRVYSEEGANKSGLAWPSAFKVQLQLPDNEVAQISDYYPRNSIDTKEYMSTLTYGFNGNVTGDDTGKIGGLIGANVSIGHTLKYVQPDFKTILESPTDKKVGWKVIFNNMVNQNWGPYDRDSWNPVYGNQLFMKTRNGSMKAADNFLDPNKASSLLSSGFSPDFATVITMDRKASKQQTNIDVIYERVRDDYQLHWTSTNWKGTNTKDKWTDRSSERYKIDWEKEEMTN

[3] = 1% topical drops 7 to 13 hours PI (15 drops), 13 hours PI
[4] = 1% topical drops 7 to 13 hours PI, 13 hours PI
[5] = 1% topical drops 7 to 13 hours PI, 14 hours PI

T1 sequence (P09616 27-319 limits assumed): as above

Compound | inhibition of α-toxin activity (α-toxin [1]) | reduction in α-toxin hemolytic titer (α-toxin [2]) | average SLE score (S. aureus strain 8325-4; [3]) | corneal erosion diameter (S. aureus strain 8325-4; [4]) [mm] | number of surviving S. aureus (S. aureus strain 8325-4; [5]) | average SLE score (S. aureus strain 60171; [3]) | diameter of corneal epithelial erosions (S. aureus strain 60171; [4]) [mm] | bacteria in the corneas (S. aureus strain 60171; [5]) | binding to the pore of α-toxin heptamer (α-toxin heptamer)
C[C@]12CCC(=O)C=C1CC[C@@H]1[C@@H]2[C@@H](O)C[C@@]2(C)[C@H]1CC[C@]2(O)C(=O)CO [hydrocortisone] | weakly inhibited | – | – | – | – | – | – | – | –
methyl-β-cyclodextrin [CD] | – | twofold; also recorded: two-fold | 9.23±0.39 | 4.55±0.28 | 9.36×10^6±4.22×10^5 bacteria per cornea | 9.02±0.90 | 4.83±0.31 | 2.42×10^7±8.96×10^6 bacteria | bind weakly
